Patent US20220387375A1, “TRPV1 ACTIVATION-MODULATING COMPLEX MIXTURES OF CANNABINOIDS AND/OR TERPENES” (GBS Global Biopharma, Inc., priority 2018, published 2022)

Molecular target: T1, TRPV1 (Rattus norvegicus, UniProt O35433)
T1 construct: FLAG; expressed in transfected cells
Experiment: Bulk calcium assay (Fluo-4) in HEK-TRPV1 overexpressing cells
Assay type: cell-based
Details: for mean maximal Ca^2+ signal RFU achieved 0-180 s (SD), TRPV1: bulk calcium assay; for calcium fluxes: dosing concentrations of 30-50 μM; for initiation of a calcium flux: single dose 10 μM, 1 mM external Ca2+
Method: Cells were washed and incubated with 0.2 micromolar Fluo-4 for 30 minutes at 37° C. in a standard modified Ringer's solution of the following composition (in mM): NaCl 145, KCl 2.8, CsCl 10, CaCl2 10, MgCl2 2, glucose 10, Hepes·NaOH 10, pH 7.4, 330 mOsm. Cells were transferred to 96-well plates at 50,000 cells/well and stimulated as indicated. Calcium signals were acquired using a Flexstation 3 (Molecular Devices, Sunnydale, USA). Data was analyzed using SoftMax® Pro 5 (Molecular Devices). Where indicated, nomically calcium-free external conditions were achieved by the preparation of 0 mM CaCl2 Ringer solution containing 1 mM EGTA.
The cell culture system described in U.S. patent application Ser. No. 15/986,316 was used to test the TRPV1-mediated calcium response to various terpenes. The HEK293 cell line was stably transfected with the pcDNA6TR (Invitrogen, CA) plasmid (encoding the tetracycline-sensitive TREx repressor protein), and was maintained in DMEM+10% fetal bovine serum (inactivated at 55° C. for 1 h)+2 mM glutamine in humidified 5% CO2 atmosphere at 37° C. Selection pressure on the TRex 293 cells was maintained by continuous culture in 10 μg/ml Blasticidin (Sigma, St Louis, Mo.).
For production of TRex HEK293 cells with inducible expression of TRPV1, parental cells were electroporated with the rat TRPV1 cDNA in the pcDNA4TO vector and clonal cell lines were selected by limiting dilution in the presence of 400 μg/ml zeocin (Invitrogen, CA). TRPV1 expression was induced using 1 μg/ml tetracycline for 16 h at 37° C. Stable lines were screened for inducible protein expression using anti-FLAG Western blot, and inducible expression was confirmed.
Calcium responses mediated by TRPV1 were tested by calcium assay in the cell culture system. Cells were washed and incubated with 0.2 μM fluo-4 acetoxymethyl ester (“Fluo-4”) for 30 minutes at 37° C. in a standard modified Ringer's solution of the following composition (in mM): NaCl 145, KCl2.8, CsCl10, CaCl2 10, MgCl2 2, glucose 10, Hepes·NaOH 10, pH 7.4, 330 mOsm. Cells were transferred to 96-well plates at 50,000 cells/well and stimulated as indicated. The terpenes used were alpha-bisabool, alpha-pinene, myrcene, camphene, linalool, ocimene, humulene, beta-caryophyllene, beta-pinene, limonene, and nerolidol. The terpenes were diluted in DMSO and added to the wells to a final concentration of 10 μM. Vehicle (DMSO) alone was run as a negative control and subtracted from the terpene traces. Calcium signals were acquired using a Flexstation 3 (Molecular Devices, Sunnydale, USA). Data was analyzed using SoftMax® Pro 5 (Molecular Devices).
Calcium responses mediated by TRPA1, TRPM8, TRPV2, and TRPV1 were tested by calcium assay in the cell culture system. Cells were washed and incubated with 0.2 μM fluo-4 acetoxymethyl ester (“Fluo-4”) for 30 minutes at 37° C. in a standard modified Ringer's solution of the following composition (in mM): NaCl 145, KCl 2.8, CsCl 10, CaCl2 10, MgCl2 2, glucose 10, Hepes·NaOH 10, pH 7.4, 330 mOsm. Cells were transferred to 96-well plates at 50,000 cells/well and stimulated with 10 μM myrcene diluted in DMSO. Vehicle (DMSO) was used as a negative control. Vehicle traces were subtracted from the myrcene traces for each cell line.
As shown in FIGS. 16A-H, a variety of cannabinoids were capable of initiating Ca^2+ fluxes in HEK-TRPV1 overexpressing cells, except for cannabigerol and cannabinol. Comparative responses to a single dose (10 μM concentration) of a variety of cannabinoids were made in the presence of 1 mM external Ca^2+, which are population-based, or bulk Ca^2+, measurements with each trace representing averaged triplicates of 100,000 cells per sample. […] For each of the cannabinoid compounds, dose responses at the population level were performed. […] The lower limit of detectable calcium responses in this system varied from 10-100 nM (CBDV, CBGA) to 1-10 μM.

T1 sequence (O35433 whole entry): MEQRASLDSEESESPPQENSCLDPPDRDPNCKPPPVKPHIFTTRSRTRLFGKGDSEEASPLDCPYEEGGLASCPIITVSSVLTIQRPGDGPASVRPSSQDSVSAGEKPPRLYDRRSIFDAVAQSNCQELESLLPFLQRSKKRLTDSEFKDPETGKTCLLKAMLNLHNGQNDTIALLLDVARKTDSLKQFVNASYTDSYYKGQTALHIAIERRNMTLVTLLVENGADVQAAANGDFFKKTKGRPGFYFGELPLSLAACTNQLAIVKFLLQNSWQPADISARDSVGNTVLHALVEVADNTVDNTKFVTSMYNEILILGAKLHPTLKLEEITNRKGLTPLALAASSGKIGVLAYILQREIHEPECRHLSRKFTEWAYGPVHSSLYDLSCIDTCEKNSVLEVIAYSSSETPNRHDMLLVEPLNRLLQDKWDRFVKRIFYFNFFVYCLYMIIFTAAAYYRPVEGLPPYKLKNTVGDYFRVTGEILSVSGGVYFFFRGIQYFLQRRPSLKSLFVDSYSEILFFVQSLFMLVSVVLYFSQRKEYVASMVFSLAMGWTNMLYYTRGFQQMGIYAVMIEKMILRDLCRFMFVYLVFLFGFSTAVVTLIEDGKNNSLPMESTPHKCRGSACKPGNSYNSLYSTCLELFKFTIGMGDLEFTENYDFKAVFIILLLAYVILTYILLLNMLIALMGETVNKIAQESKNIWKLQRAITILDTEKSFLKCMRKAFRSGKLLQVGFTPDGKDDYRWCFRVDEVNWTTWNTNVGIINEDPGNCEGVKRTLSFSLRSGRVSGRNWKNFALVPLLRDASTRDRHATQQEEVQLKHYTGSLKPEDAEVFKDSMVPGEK

Structure (SMILES) | mean maximal Ca^2+ signal RFU achieved 0-180 s (SD), TRPV1 | calcium fluxes | initiation of a calcium flux
C=C(C)[C@@H]1CCC(C)=C[C@H]1c1c(O)cc(CCCCC)cc1O [CBD, Cannabidiol] | 11.88 (0.23) RFU |  | 
C=C(C)[C@@H]1CCC(C)=C[C@H]1c1c(O)cc(CCC)cc1O [CBDV, Cannabidivarin] | 6.51 (0.07) RFU |  | 
CCCCCc1cc(O)c(C/C=C(\C)CCC=C(C)C)c(O)c1 [CBG, Cannabigerol] | 0.41 (0.04) RFU | small calcium fluxes | did not initiate a calcium flux
CCCCCc1cc(O)c2c(c1)OC(C)(C)c1ccc(C)cc1-2 [CBN, Cannabinol] | 0.89 (0.08) RFU | small and transient calcium transient fluxes | did not initiate a calcium flux
